Experimental data from US11116760B2 (Gilead Sciences, Inc., priority 2018, dated 2021).

biological target: α4β7 integrin (Homo sapiens (Human), UniProt P13612+P26010); test: α4β7 Integrin Cell Capture Assay; assay type: cell-based; settings: Table 1; capture of α4β7 expressing RPM18866 cells on MadCAM-1 extracellular domain-coated plate
Experimental: α4β7 Integrin Cell Capture Assay
The potency of inhibitors in preventing α4β7 integrin interaction with MadCAM-1 was measured by monitoring the capture of α4β7 integrin expressing cells on a recombinant MadCAM-1 extracellular domain-coated plate. […] The plates were then washed with PBS and blocked with 3% BSA for 2 hours before being washed again.
RPM18866 cells were spun down and re-suspended in assay medium (DMEM+0.5% FBS+0.5 mM MnCl2) at a density of 0.5×10^6 cells/mL. […] The plates were incubated at 37° C. for 1 hour. 50 μL of cells were transferred to the blocked, MadCAM-1-coated plates and incubated for 30 minutes at 37° C. […] The plates were incubated for 90 minutes at room temperature. The plates were then washed 3 times with 70 μL of PBS per well and imaged on a Cellomics ArrayScan instrument. The cells that were bound to the plate were counted and plotted against the compound concentration to determine the EC50 of the test compounds.

Chain of α4β7 integrin (P13612 34-1032): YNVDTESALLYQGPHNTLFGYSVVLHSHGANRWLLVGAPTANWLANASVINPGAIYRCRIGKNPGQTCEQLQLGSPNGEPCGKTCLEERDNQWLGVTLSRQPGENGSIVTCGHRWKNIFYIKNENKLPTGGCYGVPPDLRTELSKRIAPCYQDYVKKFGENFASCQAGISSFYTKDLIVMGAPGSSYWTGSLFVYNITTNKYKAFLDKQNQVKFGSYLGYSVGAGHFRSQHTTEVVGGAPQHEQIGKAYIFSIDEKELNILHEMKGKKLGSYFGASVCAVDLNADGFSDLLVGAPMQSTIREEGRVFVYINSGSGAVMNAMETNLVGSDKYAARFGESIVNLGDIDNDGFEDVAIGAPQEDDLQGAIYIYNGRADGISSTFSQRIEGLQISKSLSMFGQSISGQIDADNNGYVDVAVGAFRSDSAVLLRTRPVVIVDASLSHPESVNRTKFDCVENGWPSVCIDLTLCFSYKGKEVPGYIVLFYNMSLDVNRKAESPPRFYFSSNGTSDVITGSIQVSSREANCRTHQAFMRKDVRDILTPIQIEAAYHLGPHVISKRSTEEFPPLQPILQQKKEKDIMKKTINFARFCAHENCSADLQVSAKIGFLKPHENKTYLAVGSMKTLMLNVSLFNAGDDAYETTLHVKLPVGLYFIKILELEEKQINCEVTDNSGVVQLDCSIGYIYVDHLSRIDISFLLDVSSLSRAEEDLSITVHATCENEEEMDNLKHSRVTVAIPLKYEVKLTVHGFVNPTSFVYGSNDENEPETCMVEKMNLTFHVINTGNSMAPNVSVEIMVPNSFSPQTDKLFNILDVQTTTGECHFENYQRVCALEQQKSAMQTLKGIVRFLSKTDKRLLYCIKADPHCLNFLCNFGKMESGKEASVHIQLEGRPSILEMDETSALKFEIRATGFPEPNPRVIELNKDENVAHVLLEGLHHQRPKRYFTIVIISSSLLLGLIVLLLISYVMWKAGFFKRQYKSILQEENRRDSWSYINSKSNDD
Chain of α4β7 integrin (P26010 20-798): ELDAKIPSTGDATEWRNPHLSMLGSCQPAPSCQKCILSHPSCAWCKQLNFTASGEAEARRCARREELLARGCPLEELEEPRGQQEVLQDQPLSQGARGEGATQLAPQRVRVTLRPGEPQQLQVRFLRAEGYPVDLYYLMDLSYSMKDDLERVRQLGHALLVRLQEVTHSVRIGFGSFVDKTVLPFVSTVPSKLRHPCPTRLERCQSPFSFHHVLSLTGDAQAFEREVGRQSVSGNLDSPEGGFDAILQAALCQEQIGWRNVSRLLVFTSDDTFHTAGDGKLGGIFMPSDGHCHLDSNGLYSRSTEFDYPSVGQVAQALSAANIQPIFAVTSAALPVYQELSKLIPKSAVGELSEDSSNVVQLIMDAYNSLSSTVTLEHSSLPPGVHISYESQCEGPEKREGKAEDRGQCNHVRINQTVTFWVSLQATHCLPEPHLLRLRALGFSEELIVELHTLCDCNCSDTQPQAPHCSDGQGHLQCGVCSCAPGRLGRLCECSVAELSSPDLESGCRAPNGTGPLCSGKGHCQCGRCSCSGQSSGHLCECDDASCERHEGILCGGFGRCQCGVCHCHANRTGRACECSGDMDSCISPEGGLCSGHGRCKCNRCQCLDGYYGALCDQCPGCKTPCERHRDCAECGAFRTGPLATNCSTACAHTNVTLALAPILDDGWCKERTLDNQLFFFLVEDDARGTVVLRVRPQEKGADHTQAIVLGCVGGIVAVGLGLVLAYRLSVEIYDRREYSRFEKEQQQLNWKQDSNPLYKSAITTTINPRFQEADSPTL

Compared with `N#Cc1ccc(-c2ccc(C[C@H](NC(=O)c3c(F)cc(C(=O)Nc4ccccc4)cc3F)C(=O)O)c3cccnc23)c(Cl)c1` [Example 26, (S)-3-(8-(2-chloro-4-cyanophenyl)quinolin-5-yl)-2-(2,6-difluoro-4-(phenylcarbamoyl)benzamido)propanoic acid], `C[C@@H](NC(=O)c1cc(F)c(C(=O)N[C@@H](Cc2ccc(-c3ccc(C#N)cc3Cl)c3ncccc23)C(=O)O)c(F)c1)c1ccccc1` [Example 27, (S)-3-(8-(2-chloro-4-cyanophenyl)quinolin-5-yl)-2-(2,6-difluoro-4-(((R)-1-phenylethyl)carbamoyl)benzamido)propanoic acid] is 2.6-fold lower in EC50: 0.0328 µM for the first, 0.0128 µM for the second. The second is the more potent here.

Going from `N#Cc1ccc(-c2ccc(C[C@H](NC(=O)c3c(F)cc(C(=O)NCC(F)(F)F)cc3F)C(=O)O)c3cccnc23)c(Cl)c1` [Example 28, (S)-3-(8-(2-chloro-4-cyanophenyl)quinolin-5-yl)-2-(2,6-difluoro-4-((2,2,2-trifluoroethyl)carbamoyl)benzamido)propanoic acid] to `CS(=O)(=O)Nc1cc(F)c(C(=O)N[C@@H](Cc2ccc(-c3ccc(C#N)cc3Cl)c3ncccc23)C(=O)O)c(F)c1` [Example 45, (S)-3-(8-(2-chloro-4-cyanophenyl)quinolin-5-yl)-2-(2,6-difluoro-4-(methylsulfonamido)benzamido)propanoic acid], the EC50 falls from 0.0335 µM to 0.0034 µM (9.9-fold). The second is the more potent here.

First: CC(C)(O)C#Cc1cc(Cl)c(C(=O)N[C@@H](Cc2ccc(-c3ccc(C#N)cc3Cl)c3ncccc23)C(=O)O)c(Cl)c1 [Example 29, (S)-3-(8-(2-chloro-4-cyanophenyl)quinolin-5-yl)-2-(2,6-dichloro-4-(3-hydroxy-3-methylbut-1-yn-1-yl)benzamido)propanoic acid]
Second: N#Cc1ccc(-c2ccc(C[C@H](NC(=O)c3c(Cl)cccc3Cl)C(=O)O)c3cc(F)cnc23)c(Cl)c1 [Example 30, (S)-3-(8-(2-chloro-4-cyanophenyl)-3-fluoroquinolin-5-yl)-2-(2,6-dichlorobenzamido)propanoic acid]
The EC50 of the first is 4.1-fold higher: 0.0687 µM for the first, 0.0169 µM for the second.

Going from `CCOCc1cc(OC)c(-c2ccc(C[C@H](NC(=O)c3c(F)cccc3F)C(=O)O)c3ccc(C)nc23)c(OC)c1` [Example 31, (S)-2-(2,6-difluorobenzamido)-3-(8-(4-(ethoxymethyl)-2,6-dimethoxyphenyl)-2-methylquinolin-5-yl)propanoic acid] to `CCOCc1cc(OC)c(-c2ccc(CC(NC(=O)c3c(F)cccc3F)C(=O)O)c3ccc(C(F)(F)F)nc23)c(OC)c1` (stereo not drawn) [Example 38, 2-(2,6-difluorobenzamido)-3-(8-(4-(ethoxymethyl)-2,6-dimethoxyphenyl)-2-(trifluoromethyl)quinolin-5-yl)propanoic acid], the EC50 rises from 0.0193 µM to 0.0297 µM (1.5-fold).

Compared with `O=C(N[C@@H](Cc1ccc(-c2c(Cl)cc(F)cc2Cl)c2ncc(F)cc12)C(=O)O)c1c(F)cccc1F` [Example 32, (S)-3-(8-(2,6-dichloro-4-fluorophenyl)-3-fluoroquinolin-5-yl)-2-(2,6-difluorobenzamido)propanoic acid], `N#Cc1ccc(-c2c(F)cc(C[C@H](NC(=O)c3c(F)cccc3F)C(=O)O)c3cccnc23)c(Cl)c1` [Example 34, (2S)-3-(8-(2-chloro-4-cyanophenyl)-7-fluoroquinolin-5-yl)-2-(2,6-difluorobenzamido)propanoic acid] is 1.9-fold lower in EC50: 0.0759 µM for the first, 0.0395 µM for the second. The second is the more potent here.

Going from `O=C(N[C@@H](Cc1ccc(-c2ncc3ccccc3c2C(F)(F)F)c2ncc(F)cc12)C(=O)O)c1c(Cl)cccc1Cl` [Example 35, (S)-2-(2,6-dichlorobenzamido)-3-(3-fluoro-8-(4-(trifluoromethyl)isoquinolin-3-yl)quinolin-5-yl)propanoic acid] to `N#Cc1ccc(-c2ccc(C[C@H](NC(=O)c3c(F)cc(NS(=O)(=O)c4ccccc4)cc3F)C(=O)O)c3cccnc23)c(Cl)c1` [Example 46, (S)-3-(8-(2-chloro-4-cyanophenyl)quinolin-5-yl)-2-(2,6-difluoro-4-(phenylsulfonamido)benzamido)propanoic acid], the EC50 rises from 0.0062 µM to 0.02 µM (3.2-fold). The first is the more potent here.

Going from `CCOCc1cc(OC)c(-c2ccc(C[C@H](NC(=O)c3c(F)cccc3F)C(=O)O)c3cc(C#N)cnc23)c(OC)c1` [Example 36, (S)-3-(3-cyano-8-(4-(ethoxymethyl)-2,6-dimethoxyphenyl)quinolin-5-yl)-2-(2,6-difluorobenzamido)propanoic acid] to `CCOCc1cc(OC)c(-c2ccc(C[C@H](NC(=O)c3c(F)cccc3F)C(=O)O)c3cc(C(F)(F)F)cnc23)c(OC)c1` [Example 37, (S)-2-(2,6-difluorobenzamido)-3-(8-(4-(ethoxymethyl)-2,6-dimethoxyphenyl)-3-(trifluoromethyl)quinolin-5-yl)propanoic acid], the EC50 rises from 0.021 µM to 0.0696 µM (3.3-fold).

First: CCOCc1cc(OC)c(-c2cc(F)c(C[C@H](NC(=O)c3c(F)cccc3F)C(=O)O)c3cccnc23)c(OC)c1 [Example 39, (S)-2-(2,6-difluorobenzamido)-3-(8-(4-(ethoxymethyl)-2,6-dimethoxyphenyl)-6-fluoroquinolin-5-yl)propanoic acid]
Second: CCOCc1cc(OC)c(-c2c(F)cc(C[C@H](NC(=O)c3c(F)cccc3F)C(=O)O)c3cccnc23)c(OC)c1 [Example 40, (S)-2-(2,6-difluorobenzamido)-3-(8-(4-(ethoxymethyl)-2,6-dimethoxyphenyl)-7-fluoroquinolin-5-yl)propanoic acid]
The EC50 of the first is 9.5-fold higher: 0.0816 µM for the first, 0.0086 µM for the second.

First: CCOCc1cc(OC)c(-c2ccc(C[C@H](NC(=O)c3c(F)cc(C#N)cc3F)C(=O)O)c3cccnc23)c(OC)c1 [Example 42, (S)-2-(4-cyano-2,6-difluorobenzamido)-3-(8-(4-(ethoxymethyl)-2,6-dimethoxyphenyl)quinolin-5-yl)propanoic acid]
Second: CCOCc1cc(OC)c(-c2ccc(C[C@H](NC(=O)c3c(F)cc(C(N)=O)cc3F)C(=O)O)c3cccnc23)c(OC)c1 [Example 43, (S)-2-(4-carbamoyl-2,6-difluorobenzamido)-3-(8-(4-(ethoxymethyl)-2,6-dimethoxyphenyl)quinolin-5-yl)propanoic acid]
The EC50 of the first is 2.9-fold higher: 0.0134 µM for the first, 0.0046 µM for the second. The second is the more potent here.

`N#Cc1ccc(-c2ccc(C[C@H](NC(=O)c3c(F)cc(NS(=O)(=O)c4ccc(-c5ccnc(F)c5)cc4)cc3F)C(=O)O)c3cccnc23)c(Cl)c1` [Example 47, (S)-3-(8-(2-chloro-4-cyanophenyl)quinolin-5-yl)-2-(2,6-difluoro-4-((4-(2-fluoropyridin-4-yl)phenyl)sulfonamido)benzamido)propanoic acid] and `N#CCc1ccc(-c2ccc(C[C@H](NC(=O)c3c(F)cc(NS(=O)(=O)c4ccc(-c5ccnc(F)c5)cc4)cc3F)C(=O)O)c3cccnc23)c(Cl)c1` [Example 53, (S)-3-(8-(2-chloro-4-(cyanomethyl)phenyl)quinolin-5-yl)-2-(2,6-difluoro-4-((4-(2-fluoropyridin-4-yl)phenyl)sulfonamido)benzamido)propanoic acid] are within 1.5-fold of each other in EC50: 0.0024 µM for the first, 0.003 µM for the second.

Going from `CS(=O)(=O)Cc1cc(F)c(C(=O)N[C@@H](Cc2ccc(-c3ccc(C#N)cc3Cl)c3ncccc23)C(=O)O)c(F)c1` [Example 48, (S)-3-(8-(2-chloro-4-cyanophenyl)quinolin-5-yl)-2-(2,6-difluoro-4-((methylsulfonyl)methyl)benzamido)propanoic acid] to `N#Cc1ccc(-c2ccc(C[C@H](NC(=O)c3c(F)cc(CS(=O)(=O)c4ccccc4)cc3F)C(=O)O)c3cccnc23)c(Cl)c1` [Example 49, (S)-3-(8-(2-chloro-4-cyanophenyl)quinolin-5-yl)-2-(2,6-difluoro-4-((phenylsulfonyl)methyl)benzamido)propanoic acid], the EC50 falls from 0.0521 µM to 0.0337 µM (1.5-fold).

First: O=C(N[C@@H](Cc1ccc(-c2ccsc2)c2ncccc12)C(=O)O)c1c(F)cc(NS(=O)(=O)c2ccc(-c3ccnc(F)c3)cc2)cc1F [Example 52, (S)-2-(2,6-difluoro-4-((4-(2-fluoropyridin-4-yl)phenyl)sulfonamido)benzamido)-3-(8-(thiophen-3-yl)quinolin-5-yl)propanoic acid]
Second: O=C(N[C@@H](Cc1ccc(-c2ccncn2)c2ncccc12)C(=O)O)c1c(F)cc(NS(=O)(=O)c2ccc(-c3ccnc(F)c3)cc2)cc1F [Example 56, (S)-2-(2,6-difluoro-4-((4-(2-fluoropyridin-4-yl)phenyl)sulfonamido)benzamido)-3-(8-(pyrimidin-4-yl)quinolin-5-yl)propanoic acid]
The EC50 of the first is 10-fold higher: 0.0915 µM for the first, 0.0091 µM for the second. The second is the more potent here.

`O=C(N[C@@H](Cc1ccc(-c2ccc(C3CC3)cc2Cl)c2ncccc12)C(=O)O)c1c(F)cc(NS(=O)(=O)c2ccc(-c3ccnc(F)c3)cc2)cc1F` [Example 54, (S)-3-(8-(2-chloro-4-cyclopropylphenyl)quinolin-5-yl)-2-(2,6-difluoro-4-((4-(2-fluoropyridin-4-yl)phenyl)sulfonamido)benzamido)propanoic acid] and `Cc1noc(C)c1-c1ccc(C[C@H](NC(=O)c2c(F)cc(NS(=O)(=O)c3ccc(-c4ccnc(F)c4)cc3)cc2F)C(=O)O)c2cccnc12` [Example 55, (S)-2-(2,6-difluoro-4-((4-(2-fluoropyridin-4-yl)phenyl)sulfonamido)benzamido)-3-(8-(3,5-dimethylisoxazol-4-yl)quinolin-5-yl)propanoic acid] are within 1.5-fold of each other in EC50: 0.0374 µM for the first, 0.0274 µM for the second.

With `O=C(N[C@@H](Cc1ccc(-c2ccc(C(F)(F)F)cn2)c2ncccc12)C(=O)O)c1c(F)cc(NS(=O)(=O)c2ccc(-c3ccnc(F)c3)cc2)cc1F` [Example 57, (S)-2-(2,6-difluoro-4-((4-(2-fluoropyridin-4-yl)phenyl)sulfonamido)benzamido)-3-(8-(5-(trifluoromethyl)pyridin-2-yl)quinolin-5-yl)propanoic acid] the EC50 was 0.03 µM.
